In general, MIC refers to the lowest concentration found to suppress growth. The low end stands for a more susceptible organism, the high end for a less susceptible organism. What is called IC50 is the concentration that gives 50% inhibition.

Bounds are passed on as bounds.

Data set [1] relates to E. cloacae. The data set is described as follows: MIC micro broth dilution assay. The data set is classed as cell-based. Particulars: for concentration inhibiting growth of 90% of isolates: panel of clinical E. cloacae isolates; for MIC: E. cloacae, purified compounds. On the technique in general: Dilution methods test growth across graded concentrations, often in twofold steps.

The subject of another data set is Pseudomonas aeruginosa. Briefly: MIC micro broth dilution assay. The data set is classed as cell-based. The following applies: for concentration inhibiting growth of 90% of isolates: panel of clinical P. aeruginosa isolates; for MIC: P. aeruginosa, purified compounds.
The subject of data set [2] is Staphylococcus aureus (USA300 strain FPR3757). The data set is described as follows: Murine model of lethal peritonitis. The format is in vivo. The following applies: 2xMIC, I.M., 1h post-infection; six mice per group.
A further data set has as its system S. aureus. Briefly: Serial passage resistance assay. The data set is classed as cell-based, Staphylococcus aureus. Particulars: 8 passages, concentration doubled each day.
The subject of the next data set is ESKAPE pathogens. The data set is described as follows: MIC micro broth dilution assay, all six species together. The format is cell-based.
In the next data set the test system is Klebsiella pneumoniae. The data set is described as follows: MIC micro broth dilution assay. The format is cell-based. The following applies: for concentration inhibiting growth of 90% of isolates: panel of clinical K. pneumoniae isolates; for MIC: K. pneumoniae, purified compounds.
Data set [3] concerns P. aeruginosa clinical isolates. Briefly: Growth with efflux inhibitor reserpine. The following applies: P. aeruginosa isolate 1420. The data set is classed as cell-based, Pseudomonas aeruginosa.
Data set [4] deals with Staphylococcus aureus biofilm. The data set is described as follows: Minimum biofilm eradication concentration. The format is cell-based. The following applies: S. aureus biofilm; purified compounds.
The subject of data set [5] is Acinetobacter baumannii biofilm. The data set is described as follows: Minimum biofilm eradication concentration. Particulars: A. baumannii biofilm; purified compounds. The format is cell-based.
Data set [6] relates to Pseudomonas aeruginosa biofilm. The data set is described as follows: Minimum biofilm eradication concentration. The following applies: P. aeruginosa biofilm; purified compounds. The format is cell-based.
The test system of data set [7] is K. pneumoniae strain 1441. Briefly: Growth with efflux inhibitor reserpine. The data set is classed as cell-based, Klebsiella pneumoniae. Particulars: with 100 μM of reserpine.
A further data set has as its system Enterococcus faecium. Briefly: MIC micro broth dilution assay. Particulars: E. faecium; purified compounds. The data set is classed as cell-based.
For another data set, the system named is P. aeruginosa. The format is cell-based, Pseudomonas aeruginosa. Particulars: 8 passages.
In another data set the test system is Acinetobacter baumannii. The data set is described as follows: MIC micro broth dilution assay. Particulars: A. baumannii; purified compounds. The data set is classed as cell-based.
Another data set has as its system human A549 cells. Briefly: Cytotoxicity MTT assay. The format is cell-based. The following applies: for IC50: read-out: IC50 A549, toxicity towards human A549 cells, MTT, 48 hours. On the technique in general: Formazan colour is commonly taken as a measure of viable cells.
The next data set relates to E. cloacae biofilm. Briefly: Minimum biofilm eradication concentration. The data set is classed as cell-based. Particulars: purified compounds.
The test system of another data set is Staphylococcus aureus. Briefly: MIC micro broth dilution assay. The format is cell-based. Particulars: S. aureus; purified compounds.
The test system of the next data set is K. pneumoniae. Briefly: Serial passage resistance assay. The data set is classed as cell-based, Klebsiella pneumoniae. Particulars: 8 passages.
Data set [8] deals with Klebsiella pneumoniae biofilm. The data set is described as follows: Minimum biofilm eradication concentration. The format is cell-based. Particulars: K. pneumoniae biofilm; purified compounds.
Data set [9] deals with E. cloacae. The format is cell-based. Particulars: 8 passages.
The subject of the next data set is A. baumannii. The data set is described as follows: Serial passage resistance assay. The data set is classed as cell-based, Acinetobacter baumannii. Particulars: 8 passages.
In another data set the test system is E. cloacae strain 1446. The data set is described as follows: Growth with efflux inhibitor reserpine. The following applies: with 100 μM of reserpine. The data set is classed as cell-based.
Data set [10] has as its system Enterococcus faecium biofilm. The data set is described as follows: Minimum biofilm eradication concentration. The format is cell-based. Particulars: E. faecium biofilm; purified compounds.
The test system of data set [11] is human red blood cells (hRBCs).
For a further data set, the system named is MRSA cells. Briefly: Time kill assay. The data set is classed as cell-based, Staphylococcus aureus.

In the case of `CCCC[C@H]1CN(CCCC[C@H]2CNC(=N)N2CCc2cccc(C(F)(F)F)c2)C(=N)N1CCCCC1CCCCC1` [compound 2, (S)-4-butyl-3-(4-cyclohexylbutyl)-1-(4-((S)-2-imino-3-(3-(trifluoromethyl)phenethyl)imidazolidin-4-yl)butyl)imidazolidin-2-imine], the “concentration inhibiting growth of 90% of isolates” value in the data set with E. cloacae [1], with Pseudomonas aeruginosa and in the data set with Klebsiella pneumoniae was 5 µM throughout. Also, the “survival of infected mice over 5 days” value in [2] was “only a single mouse succumbing to infection after the first day”. For the same compound, in the data set with S. aureus, the “fold increase in MIC after serial passage” value (“fold increase in MIC” for short) is “two-fold”. In addition, in the data set with ESKAPE pathogens, the “concentration with antibacterial activity against all 6 species” value (“concentration … against all 6 species” for short) is less than 2 µM.

Regarding `COC(=O)[C@H]1[C@H]2C[C@@H]3c4[nH]c5cc(OC)ccc5c4CCN3C[C@H]2C[C@@H](OC(=O)c2cc(OC)c(OC)c(OC)c2)[C@@H]1OC` [reserpine, reference compound], the “effect on growth, reserpine alone” value in data set [3] (100 μM of reserpine) was “no effect”.

As for “(S)-1-(4-((S)-3-(4-cyclohexylbutyl)-2-iminoimidazolidin-4-yl)butyl)-4-(cyclohexylmethyl)-3-hexylimidazolidin-2-imine [compound 16]”, the MBEC50 in data set [4] was determined as 7.6 µM; in [5], 14 µM; in [6], 34 µM; in the data set with E. cloacae biofilm it was 13 µM; in data set [8] it was 6.3 µM. Also, the minimum inhibitory concentration (MIC) in the data set on E. cloacae [1], in the data set with Enterococcus faecium, in the data set on Acinetobacter baumannii, with Pseudomonas aeruginosa, in the data set on Staphylococcus aureus and against Klebsiella pneumoniae was 1.6 µM in each case. Besides, the entries for the “concentration inhibiting growth of 90% of isolates” value in the data set with E. cloacae [1], with Pseudomonas aeruginosa and in the data set with Klebsiella pneumoniae were 2 µM, 5 µM and 5 µM, respectively. The “effect on growth, compound in combination with reserpine” value in data set [7] is “complete inhibition of growth”. In addition, the “fold increase in MIC” value with P. aeruginosa is 8 fold; in the data set on K. pneumoniae it was not above 8 fold; in the data set on S. aureus, 16 fold; in the data set on E. cloacae [9] it was not above 8 fold; in the data set with A. baumannii it was not above 8 fold. Moreover, the A549 recovery in the data set on human A549 cells (at concentrations up to 100 μM) was more than 65%. For the same compound, the 50% inhibitory concentration (IC50) in the data set with human A549 cells was more than 225 µM. In addition, the “survival of infected mice over 5 days” value in data set [2] was “only a single mouse succumbing to infection after the first day”. For the same compound, the “concentration … against all 6 species” value with ESKAPE pathogens is less than 2 µM.

On to “(S)-4-(cyclohexylmethyl)-3-hexyl-1-(4-((S)-2-imino-3-(3-(trifluoromethyl)phenethyl)imidazolidin-4-yl)butyl)imidazolidin-2-imine [compound 7]”, for which the MBEC50 in [4] is 4.4 µM; in [5] it was 13 µM; in data set [6] it was 46 µM; in data set [10] it was 26 µM; with E. cloacae biofilm it was 15 µM; in data set [8] it was 4.8 µM. The MIC against E. cloacae [1], with Enterococcus faecium, against Acinetobacter baumannii, in the data set with Pseudomonas aeruginosa, in the data set with Staphylococcus aureus and in the data set with Klebsiella pneumoniae was 1.5 µM in each case. Besides, the “concentration inhibiting growth of 90% of isolates” value in the data set with E. cloacae [1] is 2 µM; in the data set on Pseudomonas aeruginosa, 10 µM; with Klebsiella pneumoniae, 5 µM. The “effect on growth, compound in combination with reserpine” value in the data set with E. cloacae strain 1446 is on record as “complete inhibition of growth”. The A549 recovery was not below 33% in the data set with human A549 cells (above 45 μM, at concentrations up to 225 μM) and more than 60% in the data set on human A549 cells (at 45 μM). Moreover, in the data set with human A549 cells, the IC50 was 66 µM. The “survival of infected mice over 5 days” value in data set [2] is 1 mouse lost on each of days 2 and 4. The “fold increase in MIC” value was not above 8 fold in the data set with K. pneumoniae, “four-fold” in the data set with S. aureus, not above 8 fold with E. cloacae [9] and not above 8 fold in the data set on A. baumannii. The “concentration … against all 6 species” value with ESKAPE pathogens is less than 2 µM.

With “(S)-4-butyl-3-hexyl-1-(4-((S)-2-imino-3-(3-(trifluoromethyl)phenethyl)imidazolidin-4-yl)butyl)imidazolidin-2-imine [compound 1]”, the MBEC50 came to 14 µM in data set [4]; 15 µM in data set [5]; 20 µM in data set [6]; 39 µM in [10]; 13 µM in the data set with E. cloacae biofilm; 7.0 µM in [8]. For the same compound, the MIC with E. cloacae [1], in the data set on Enterococcus faecium, against Acinetobacter baumannii, in the data set with Pseudomonas aeruginosa, in the data set with Staphylococcus aureus and against Klebsiella pneumoniae was 1.6 µM in each case. Also, the “concentration inhibiting growth of 90% of isolates” value with E. cloacae [1], in the data set with Pseudomonas aeruginosa and in the data set with Klebsiella pneumoniae was 10 µM in each case. Besides, in the data set with human A549 cells, the concentration for half-maximal inhibition (IC50) came to 164 µM. Further, the “effect on growth, compound combined with reserpine” value in data set [3] (2 μM compound + 100 μM reserpine) is reported as “strongly inhibited growth”. Besides, the “effect on growth, compound alone” value in data set [3] (2 μM of compound, no reserpine) is “no effect”. Also, the “survival of infected mice over 5 days” value in [2] is on record as “all mice survived”. Moreover, the “fold increase in MIC” value with S. aureus was “two-fold”. Moreover, the “concentration … against all 6 species” value in the data set with ESKAPE pathogens was less than 2 µM.

For Triton-X100, the “hemolysis, positive control” value in data set [11] was 100%.

Consider “benzalkonium chloride [reference compound]”, for which the “cells recovered / surviving exposure (optical density relative to start)” value in the data set on MRSA cells (MRSA, 2 h, 2.0% SDS, 0.001% benzalkonium chloride, 0.001% benzethonium chloride) was 29%.

For “lysostaphin: a S. aureus specific lytic agent, positive control”, the “lysis of MRSA cells” value in the data set on MRSA cells (within 10 minutes of exposure, 4 μM lysostaphin) is recorded as more than 50%.

These data come from PMC8982266 (Journal of medicinal chemistry, 2015).
